In paper PMC3569412, “In Vivo Imaging with Fluorescent Smart Probes to Assess Treatment Strategies for Acute Pancreatitis” (PLoS ONE, 2013):

What was measured:
[1] = system: trypsin; test: mPEG-PL-Cy5.5 probe activation by pancreatic enzymes with or without SPINK1; assay type: biochemical; details: 0.2 µM probe, 100 nM enzyme, 1 µM SPINK1
Protocol: All enzyme assays were conducted in 384-well plates with a final substrate ( = mPEG-PL-Cy5.5 probe) concentration of 0.2 µM diluted in the appropriate assay buffer in a final assay volume of 25 µl. Enzyme and, in cases where applied, SPINK-1 (final assay concentration: 1 µM) were pre-incubated for one hour at room temperature. Subsequently substrate was added and incubated for 3 h at 37°C prior to measurement. All enzymes were either commercially obtained or prepared as described previously, [17], [18], [19].
Enzyme, SPINK-1 and substrate solutions were transferred to 384-well plates by means of a CyBi Well pipettor (CyBio, Jena, Germany). Plate measurements were conducted by the means of a Safire2 microplate reader (TECAN, Maennedorf, Switzerland) and wavelengths of 680 nm and 700 nm were taken for fluorescence excitation and emission acquisition, respectively. The bandwidths were set to 10 nm in both the excitation and the emission path. The fluorescence in each well was excited by three flashes per measurement.

[2] = system: trypsin; test: assessment of trypsin concentration in pancreas extracts; assay type: in vivo, rat; details: Camostat 300 mg/kg orally; vs untreated saline animals
Protocol: The pancreas was removed from the euthanized animals, weighted and transferred into Dispomix tubes (Miltenyi Biotec, Bergisch Gladbach, Germany). After the addition of ice-cold PBS buffer (1 µl per […]), the pancreas was homogenized with a gentleMACS™ Dissociator (Miltenyi Biotec, Bergisch Gladbach, Germany). The homogenate was centrifuged at 4°C and 20,000 g for 10 min. The supernatant was stored at −20°C. The activity assay was performed at room temperature in 384-well plates in a total assay volume of 20 µl per well. For fluorescence quantification a Safire2 (Tecan, Maennedorf, Switzerland) instrument was used with fluorescence excitation and emission wavelengths of 485 nm and 535 nm, respectively. 10 µl of dilutions of extracts (typical range: 1∶500 to 1∶2,000) were transferred to 384 well assay plates. […] The enzymatic activity in the pancreatic extract was obtained from the linear progression curves and determined after one hour. Signal-to-background (S/B) values within the linear range of the assay signal were selected to calculate the trypsin concentrations of the extract analyzed. […] The amount of trypsin was calculated by transforming S/B levels obtained in the activity assay of extract dilutions fulfilling initial enzyme velocity criteria into trypsin concentration values via a calibration curve using recombinant rat trypsin S1-94.

[3] = target: h cathepsin S (Homo sapiens, UniProt P25774); test: protease selectivity panel, enzyme activity assay; assay type: biochemical; details: 1 h pre-incubation RT
From the text: (§1) The three drug-like compounds tested in the optical molecular imaging model were characterized for selectivity against a panel of recombinant proteases available at Novartis. The biochemical enzyme activity assays were based on the cleavage of peptidic substrates that are fluorescently labeled. In case of rhodamine-110 label fluorescence intensity and in case of PT14 label fluorescence lifetime was used as readout. The effect of the compound on the enzymatic activity was obtained from the linear part of the substrate cleavage progress curve at substrate concentrations well below KM, typically at 1 µM. All enzyme assays were conducted in 384-well plates with a final assay volume of 25 µl. Enzyme and compound (11 different concentrations from 100 µM to 0.0003 µM) were pre-incubated for one hour at room temperature (RT). Subsequently substrate was added and incubated for 1 h at RT prior to measurement.

[4] = target: h cathepsin C (Homo sapiens, UniProt P53634); test: protease selectivity panel, enzyme activity assay; assay type: biochemical; details: 1 h pre-incubation RT
From the text: as §1

[5] = target: h factor VIIa (Homo sapiens, UniProt P08709); test: protease selectivity panel, enzyme activity assay; assay type: biochemical; details: 1 h pre-incubation RT
From the text: as §1

[6] = target: h cationic trypsin (Homo sapiens, UniProt P07477); test: protease selectivity panel, enzyme activity assay; assay type: biochemical; details: 1 h pre-incubation RT
From the text: as §1

[7] = target: h plasma kallikrein (Homo sapiens, UniProt P03952); test: protease selectivity panel, enzyme activity assay; assay type: biochemical; details: 1 h pre-incubation RT
From the text: as §1

[8] = target: h proteinase 3 (Homo sapiens, UniProt P24158); test: protease selectivity panel, enzyme activity assay; assay type: biochemical; details: 1 h pre-incubation RT
From the text: as §1

[9] = target: h neutrophil elastase (Homo sapiens, UniProt P08246); test: protease selectivity panel, enzyme activity assay; assay type: biochemical; details: 1 h pre-incubation RT
From the text: as §1

[10] = target: h kallikrein 5 (Homo sapiens, UniProt Q9Y337); test: protease selectivity panel, enzyme activity assay; assay type: biochemical; details: 1 h pre-incubation RT
From the text: as §1

[11] = target: h cathepsin B (Homo sapiens, UniProt P07858); test: protease selectivity panel, enzyme activity assay; assay type: biochemical; details: 1 h pre-incubation RT
From the text: as §1

[12] = target: h factor XIIa (Homo sapiens, UniProt P00748); test: protease selectivity panel, enzyme activity assay; assay type: biochemical; details: 1 h pre-incubation RT
From the text: as §1

[13] = target: h cathepsin G (Homo sapiens, UniProt P08311); test: protease selectivity panel, enzyme activity assay; assay type: biochemical; details: 1 h pre-incubation RT
From the text: as §1

[14] = target: h kallikrein 1 (Homo sapiens, UniProt P06870); test: protease selectivity panel, enzyme activity assay; assay type: biochemical; details: 1 h pre-incubation RT
From the text: as §1

[15] = target: h factor XIa (Homo sapiens, UniProt P03951); test: protease selectivity panel, enzyme activity assay; assay type: biochemical; details: 1 h pre-incubation RT
From the text: as §1

[16] = target: h factor Xa (Homo sapiens, UniProt P00742); test: protease selectivity panel, enzyme activity assay; assay type: biochemical; details: 1 h pre-incubation RT
From the text: as §1

[17] = target: h cathepsin K (Homo sapiens, UniProt P43235); test: protease selectivity panel, enzyme activity assay; assay type: biochemical; details: 1 h pre-incubation RT
From the text: as §1

[18] = target: h chymase (Homo sapiens, UniProt P23946); test: protease selectivity panel, enzyme activity assay; assay type: biochemical; details: 1 h pre-incubation RT
From the text: as §1

[19] = target: h matriptase (Homo sapiens, UniProt Q9Y5Y6); test: protease selectivity panel, enzyme activity assay; assay type: biochemical; details: 1 h pre-incubation RT
From the text: as §1

[20] = target: h cathepsin L (Homo sapiens, UniProt P07711); test: protease selectivity panel, enzyme activity assay; assay type: biochemical; details: 1 h pre-incubation RT
From the text: as §1

[21] = target: h kallikrein 7 (Homo sapiens, UniProt P49862); test: protease selectivity panel, enzyme activity assay; assay type: biochemical; details: 1 h pre-incubation RT
From the text: as §1

[22] = system: trypsin activity in rat pancreas; test: ex vivo fluorescence imaging of excised pancreas (total signal intensity of activated probe); assay type: in vivo; details: Camostat 300 mg/kg orally; vs untreated animals; P<0.01
Protocol: 280–320 g female Sprague Dawley rats were received from Charles Rivers Laboratory. Animals were maintained in a facility with a controlled temperature (21–24°C) and lighting (12∶12 h light: dark cycle). Animals were placed on a chlorophyll-free diet (Harlan TK2916) 10 days prior and for the duration of the imaging study to reduce the amount of autofluorescence and had free access to drinking water. One day prior to the experiment, animals were shaved at the abdomen for imaging studies. The pancreatitis model was induced by hyperstimulation with the cholecystokinin (CCK) analog caerulein (Sigma-Aldrich, St. Louis, MO). […] For studies with Novartis166 and Novartis848, varying concentrations, in a solution, were administered intraperitonealy (IP) only once, one hour before caerulein administration. Self-quenched protease activatable mPEG-PL-Cy5.5 probe was administered to all animals via the tail vein at a dose of 80 nmol/kg 40 minutes prior to the start of caerulein administration for measuring the amount of activated trypsin in the pancreas. […]
(§2) In vivo optical imaging studies were conducted using a spectral imaging system, Maestro (Perkin Elmer, Boston, MA). […] Animals were imaged before the start of the study for background/autofluorescence, and at 20 minutes after the mPEG-PL-Cy5.5 probe administration for basal increase in fluorescence due to probe administration. […]

[23] = system: rat caerulein-injection pancreatitis model; test: in vivo edema imaging with blood pool agent Angiosense 680; details: Camostat 300 mg/kg orally; three caerulein doses SC
[24] = system: trypsin activity in rat pancreas; test: in vivo optical imaging of activatable probe signal in pancreas, caerulein-injection pancreatitis model; details: Camostat 300 mg/kg orally; vs untreated caerulein animals; P<0.001
Protocol: 280–320 g female Sprague Dawley rats were received from Charles Rivers Laboratory. Animals were maintained in a facility with a controlled temperature (21–24°C) and lighting (12∶12 h light: dark cycle). Animals were placed on a chlorophyll-free diet (Harlan TK2916) 10 days prior and for the duration of the imaging study to reduce the amount of autofluorescence and had free access to drinking water. One day prior to the experiment, animals were shaved at the abdomen for imaging studies. The pancreatitis model was induced by hyperstimulation with the cholecystokinin (CCK) analog caerulein (Sigma-Aldrich, St. Louis, MO). […]
as §2
Region of the pancreas and liver were determined and defined from whole body clean images acquired after sacrificing the animals, and used on all corresponding in vivo images in the same animal. Fluorescent intensity at various time points from the same animal were normalized by fluorescence intensity determined before the start of the caerulein insult and the change in signal intensity was then plotted as a function of time.

[25] = target: h chymotrypsin; test: protease selectivity panel, enzyme activity assay; assay type: biochemical, human; details: 1 h pre-incubation RT
From the text: as §1

[26] = target: h pancreatic elastase; test: protease selectivity panel, enzyme activity assay; assay type: biochemical, human; details: 1 h pre-incubation RT
From the text: as §1

Chain of h factor Xa (P00742 235-488 limits assumed): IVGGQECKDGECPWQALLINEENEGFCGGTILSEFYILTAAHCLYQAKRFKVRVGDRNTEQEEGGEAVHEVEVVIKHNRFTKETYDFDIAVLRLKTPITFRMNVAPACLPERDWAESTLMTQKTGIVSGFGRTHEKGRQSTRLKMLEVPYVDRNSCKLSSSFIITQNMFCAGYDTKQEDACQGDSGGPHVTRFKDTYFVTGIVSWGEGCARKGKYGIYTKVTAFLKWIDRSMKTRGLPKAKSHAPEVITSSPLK
Chain of h factor Xa (P00742 41-179 partner limits assumed): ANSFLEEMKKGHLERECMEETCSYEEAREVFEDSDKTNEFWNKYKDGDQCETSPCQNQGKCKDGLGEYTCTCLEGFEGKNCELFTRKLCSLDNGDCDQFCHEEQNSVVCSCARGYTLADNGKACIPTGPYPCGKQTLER
Chain of h kallikrein 7 (P49862 30-253): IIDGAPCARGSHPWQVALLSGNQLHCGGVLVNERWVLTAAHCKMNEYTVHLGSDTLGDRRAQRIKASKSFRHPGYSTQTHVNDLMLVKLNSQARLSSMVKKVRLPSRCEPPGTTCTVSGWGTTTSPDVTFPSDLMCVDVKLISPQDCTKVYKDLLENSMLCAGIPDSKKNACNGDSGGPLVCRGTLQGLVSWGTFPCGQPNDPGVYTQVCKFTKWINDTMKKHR
Chain of h factor XIIa (P00748 373-615 limits assumed): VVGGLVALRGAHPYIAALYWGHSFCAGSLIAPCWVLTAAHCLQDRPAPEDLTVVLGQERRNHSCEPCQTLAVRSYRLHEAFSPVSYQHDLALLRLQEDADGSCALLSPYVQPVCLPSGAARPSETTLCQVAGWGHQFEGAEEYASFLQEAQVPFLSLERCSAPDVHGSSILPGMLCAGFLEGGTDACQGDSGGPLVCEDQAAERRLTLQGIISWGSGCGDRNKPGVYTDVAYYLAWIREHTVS
Chain of h cathepsin G (P08311 21-255): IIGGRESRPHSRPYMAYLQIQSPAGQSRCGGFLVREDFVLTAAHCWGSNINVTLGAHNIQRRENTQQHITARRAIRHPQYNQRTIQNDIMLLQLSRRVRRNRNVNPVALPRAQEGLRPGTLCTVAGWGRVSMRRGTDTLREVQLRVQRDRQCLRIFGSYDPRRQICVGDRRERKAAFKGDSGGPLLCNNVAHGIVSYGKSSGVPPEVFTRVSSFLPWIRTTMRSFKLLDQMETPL
Chain of h cathepsin C (P53634 25-463): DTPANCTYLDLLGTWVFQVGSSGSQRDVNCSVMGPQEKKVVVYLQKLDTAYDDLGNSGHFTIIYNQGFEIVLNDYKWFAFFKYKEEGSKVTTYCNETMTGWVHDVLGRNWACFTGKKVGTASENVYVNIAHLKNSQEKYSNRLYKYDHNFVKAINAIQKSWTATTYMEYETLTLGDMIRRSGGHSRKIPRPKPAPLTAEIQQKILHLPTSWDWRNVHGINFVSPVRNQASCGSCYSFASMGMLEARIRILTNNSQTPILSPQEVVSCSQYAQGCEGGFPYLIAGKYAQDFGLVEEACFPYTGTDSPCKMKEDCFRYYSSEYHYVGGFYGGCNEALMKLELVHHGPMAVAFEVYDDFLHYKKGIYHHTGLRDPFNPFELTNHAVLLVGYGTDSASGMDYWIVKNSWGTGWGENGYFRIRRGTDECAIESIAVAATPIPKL
Chain of h chymase (P23946 22-247): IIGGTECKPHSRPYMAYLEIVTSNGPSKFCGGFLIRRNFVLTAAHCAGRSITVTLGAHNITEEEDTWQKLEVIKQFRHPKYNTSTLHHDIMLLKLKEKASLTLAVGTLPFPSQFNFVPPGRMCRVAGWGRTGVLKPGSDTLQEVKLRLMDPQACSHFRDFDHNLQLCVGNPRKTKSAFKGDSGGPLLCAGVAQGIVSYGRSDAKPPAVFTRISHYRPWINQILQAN
Chain of h plasma kallikrein (P03952 20-638): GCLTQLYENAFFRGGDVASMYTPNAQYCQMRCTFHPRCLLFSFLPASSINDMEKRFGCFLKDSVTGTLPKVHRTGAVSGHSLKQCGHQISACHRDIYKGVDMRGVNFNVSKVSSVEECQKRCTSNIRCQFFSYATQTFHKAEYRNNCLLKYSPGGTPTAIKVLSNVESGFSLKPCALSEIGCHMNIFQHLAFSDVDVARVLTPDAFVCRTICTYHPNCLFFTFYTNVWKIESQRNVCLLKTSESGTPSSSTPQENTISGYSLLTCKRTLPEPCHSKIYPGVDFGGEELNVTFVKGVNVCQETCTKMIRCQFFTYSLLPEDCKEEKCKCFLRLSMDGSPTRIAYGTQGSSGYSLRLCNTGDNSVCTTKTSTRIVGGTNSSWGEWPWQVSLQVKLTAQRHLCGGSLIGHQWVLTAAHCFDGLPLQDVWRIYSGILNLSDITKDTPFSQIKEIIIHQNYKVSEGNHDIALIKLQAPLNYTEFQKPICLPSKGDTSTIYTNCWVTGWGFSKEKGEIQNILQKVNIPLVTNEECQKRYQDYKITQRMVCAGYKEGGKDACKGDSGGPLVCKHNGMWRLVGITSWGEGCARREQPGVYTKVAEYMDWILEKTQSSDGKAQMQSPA
Chain of h factor VIIa (P08709 213-466 limits assumed): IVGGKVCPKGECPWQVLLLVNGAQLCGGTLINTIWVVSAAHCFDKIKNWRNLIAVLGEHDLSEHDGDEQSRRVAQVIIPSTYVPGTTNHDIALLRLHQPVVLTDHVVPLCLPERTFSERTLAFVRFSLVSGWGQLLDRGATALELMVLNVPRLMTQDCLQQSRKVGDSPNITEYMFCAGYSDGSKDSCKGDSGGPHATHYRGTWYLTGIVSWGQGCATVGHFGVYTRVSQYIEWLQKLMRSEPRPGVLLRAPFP
Chain of h factor VIIa (P08709 61-212 partner limits assumed): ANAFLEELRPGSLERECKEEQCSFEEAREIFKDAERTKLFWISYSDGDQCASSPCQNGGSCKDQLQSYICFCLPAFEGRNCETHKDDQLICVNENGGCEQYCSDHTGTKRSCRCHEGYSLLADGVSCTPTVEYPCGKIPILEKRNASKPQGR
Chain of h kallikrein 5 (Q9Y337 23-293): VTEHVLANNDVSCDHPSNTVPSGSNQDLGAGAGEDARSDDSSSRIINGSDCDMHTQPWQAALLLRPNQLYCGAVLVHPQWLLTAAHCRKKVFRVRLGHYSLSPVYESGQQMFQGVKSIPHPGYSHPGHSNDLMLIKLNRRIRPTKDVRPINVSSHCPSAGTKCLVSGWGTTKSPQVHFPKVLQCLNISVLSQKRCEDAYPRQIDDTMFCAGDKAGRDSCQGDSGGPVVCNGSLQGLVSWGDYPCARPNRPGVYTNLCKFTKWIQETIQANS
Chain of h proteinase 3 (P24158 28-256): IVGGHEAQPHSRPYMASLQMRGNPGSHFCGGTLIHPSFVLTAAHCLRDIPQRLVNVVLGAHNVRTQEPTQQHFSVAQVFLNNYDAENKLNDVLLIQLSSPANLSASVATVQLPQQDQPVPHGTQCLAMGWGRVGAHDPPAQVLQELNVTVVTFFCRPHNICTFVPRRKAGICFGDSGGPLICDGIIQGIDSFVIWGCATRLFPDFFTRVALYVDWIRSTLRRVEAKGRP
Chain of h cathepsin L (P07711 114-333): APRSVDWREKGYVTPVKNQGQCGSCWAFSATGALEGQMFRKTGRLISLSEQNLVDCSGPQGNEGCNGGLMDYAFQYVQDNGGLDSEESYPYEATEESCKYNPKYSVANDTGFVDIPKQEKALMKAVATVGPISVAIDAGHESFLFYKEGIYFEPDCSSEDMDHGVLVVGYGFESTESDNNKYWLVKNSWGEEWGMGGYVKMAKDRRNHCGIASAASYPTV
Chain of h kallikrein 1 (P06870 25-262): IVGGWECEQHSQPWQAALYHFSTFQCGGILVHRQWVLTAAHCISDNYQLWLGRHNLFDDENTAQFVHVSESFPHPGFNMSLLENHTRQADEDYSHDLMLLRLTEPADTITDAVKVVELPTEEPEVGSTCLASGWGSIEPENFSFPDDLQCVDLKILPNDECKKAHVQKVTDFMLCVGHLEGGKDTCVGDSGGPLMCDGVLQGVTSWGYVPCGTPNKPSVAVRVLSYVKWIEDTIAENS
Chain of h matriptase (Q9Y5Y6 whole entry): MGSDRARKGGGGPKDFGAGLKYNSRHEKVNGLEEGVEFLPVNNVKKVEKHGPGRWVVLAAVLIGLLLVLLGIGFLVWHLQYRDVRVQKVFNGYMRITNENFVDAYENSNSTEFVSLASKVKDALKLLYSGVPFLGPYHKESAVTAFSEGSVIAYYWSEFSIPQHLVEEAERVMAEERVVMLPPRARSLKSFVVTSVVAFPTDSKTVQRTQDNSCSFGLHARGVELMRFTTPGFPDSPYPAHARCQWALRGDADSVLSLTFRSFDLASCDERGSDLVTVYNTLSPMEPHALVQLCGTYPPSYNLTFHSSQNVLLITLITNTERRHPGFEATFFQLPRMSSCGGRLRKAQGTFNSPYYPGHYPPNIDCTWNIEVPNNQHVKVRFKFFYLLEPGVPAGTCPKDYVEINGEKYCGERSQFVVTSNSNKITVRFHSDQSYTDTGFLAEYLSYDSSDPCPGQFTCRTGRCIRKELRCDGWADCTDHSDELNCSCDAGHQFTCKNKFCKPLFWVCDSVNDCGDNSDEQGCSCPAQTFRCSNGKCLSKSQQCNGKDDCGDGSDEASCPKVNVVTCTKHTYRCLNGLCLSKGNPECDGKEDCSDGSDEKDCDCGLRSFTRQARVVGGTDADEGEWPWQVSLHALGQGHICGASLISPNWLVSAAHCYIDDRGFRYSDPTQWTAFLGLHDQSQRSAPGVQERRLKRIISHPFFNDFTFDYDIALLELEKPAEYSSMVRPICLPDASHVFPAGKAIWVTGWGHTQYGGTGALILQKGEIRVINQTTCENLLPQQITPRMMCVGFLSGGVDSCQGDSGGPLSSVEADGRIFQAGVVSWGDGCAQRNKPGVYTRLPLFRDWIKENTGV
Chain of h neutrophil elastase (P08246 30-267): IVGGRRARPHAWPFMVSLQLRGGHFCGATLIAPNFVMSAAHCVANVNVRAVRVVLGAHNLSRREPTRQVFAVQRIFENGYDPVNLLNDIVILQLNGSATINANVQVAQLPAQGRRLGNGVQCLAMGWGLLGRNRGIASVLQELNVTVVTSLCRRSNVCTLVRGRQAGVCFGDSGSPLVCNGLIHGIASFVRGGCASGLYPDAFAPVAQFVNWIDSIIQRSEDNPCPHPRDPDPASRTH

SPINK1: highly specific trypsin inhibiting protein; endogenous trypsin inhibitor Kazal type 1 (DSLGREAKCYNELNGCTKIYDPVCGTDGNTYPNECVLCFENRKRQTSILIQKSGPC; UniProt P00995 24-79, looked up)
protease activation of mPEG-PL-Cy5.5 probe by trypsin in the presence of SPINK1 [1]: suppressed to background levels

CN(C)C(=O)COC(=O)Cc1ccc(OC(=O)c2ccc(NC(=N)N)cc2)cc1 [Camostat]
amount of enzymatically active trypsin in pancreas [2]: significant reduction in the amount of active trypsin | IC50 [3]: > 50 µM | IC50 [4]: > 50 µM | IC50 [5]: 0.531 µM | IC50 [6]: 0.0028 µM | IC50 [7]: 0.002 µM | IC50 [8]: > 50 µM | IC50 [9]: 91.4 µM | IC50 [10]: 0.1 µM | IC50 [11]: > 50 µM | IC50 [12]: 8 µM | IC50 [13]: 44.6 µM | IC50 [14]: 72.4 µM | IC50 [15]: 0.008 µM | IC50 [16]: 6.6 µM | IC50 [17]: > 50 µM | IC50 [18]: > 50 µM | IC50 [19]: 0.0065 µM | IC50 [20]: > 50 µM | IC50 [21]: 41.5 µM | probe activation in dissected pancreas (ex vivo) [22]: suppressed | Angiosense 680 signal in pancreas (edema imaging) [23]: no signal enhancement | in vivo mPEG-PL-Cy5.5 probe activation in pancreas [24]: reduced probe activation | IC50 [25]: 12.2 µM | IC50 [26]: > 50 µM
